Columns and labels:
[1] = Formation of adducts with MGO, kinetic study by HPLC; type: physicochemical; conditions: compound 10 mM, MGO 20 mM, 37° C., after 15 min of incubation
Description: The compounds to be tested are incubated at 37° C. in the presence of MGO or of MDA. A kinetic study aiming to report on the formation of adducts with the MGO or MDA is then carried out via HPLC analysis.
The compounds to be tested (30 μmol) are dissolved in PBS (1.5 mL). An aqueous solution (qsp 1.25 mL) of MGO at 40% in water (250 μmol) is then prepared and in parallel, MDA bis-(diOEt)-acetal (250 μmol) is set to react with a solution of HCl 1N (2 eq) in water (qsp 1.25 mL) for 1 h at room temperature. An aqueous solution of NaOH 0.05N is also required to neutralise the reaction medium (5 mL).
The solution of the compound to be tested (625 μL—final concentration in the medium=10 mM) is then set to react with the solution of MGO or of MDA prepared extemporaneously (125 μL—final concentration in the medium=20 mM) in the presence of NaOH 0.05 N (0.5 mL).
The various mixtures are then incubated in the oven at 37° C. for 24 h.
A sampling of each mixture (100 μL) is taken at regular intervals of time (0.25; 0.5; 1; 5 and 24 h) and stored at −20° C. in order to stop the reaction. After dilution in a MeCN/H2O 98:2 mixture at room temperature, the HPLC analysis is carried out on a Shimadzu LCMS-2020 apparatus (UV chromatogram at 190 nm and mass spectrum in positive electrospray ionisation mode (ESI+)) after separation on the Waters Acquity column using a gradient of solvents H2O+HCOOH 0.1%/MeCN+HCOOH 0.1% (98/2 for 2 min, then 55/45 for 2 min and 45/55 for 3 min) with a flow rate of 0.3 mL/min at 40° C. and an injection of volume of 1 (“detection mode: scan, interface voltage: tuning file, DL voltage: 100 V, Q-array DC: 40 V, Q-array RF: 40 V”). A blank is first of all carried out using a solution containing the reaction medium without scavenger. Then, a free scavenger solution at 10 mM is used as a negative control and the carnosine as a reference of the literature. The proportion of adducts formed with the MGO or MDA (generally, tR=4.1 to 6.8 min) is then measured in relation to the quantity of remaining free scavenger (generally, tR=0.8 to 4.6 min) after measurement of the area under the curve of the corresponding peaks on the UV spectrum (measurements taken for a representative sample).

[2] = Cu2+ chelating properties by UV/Visible light spectrophotometry (murexide); type: physicochemical; conditions: 0.02-2 mM compound, CuSO4 0.25 mM solution, Hexamine buffer pH 5, RT 10 min
Description: J. Mol. Sci., 2009, 10, 5485-5497; Molecules, 2012, 17, 13457-13472). […] A Hexamine buffer 0.01 M/KCl 0.01 M (qsp 200 mL) of which the pH is adjusted to 5 using a solution of HCl 1N is first of all prepared. Solutions of CuSO4.5H2O at 0.5 mM (20 mL) and 0.25 mM (100 mL) are then carried out in this buffer, with the first being used to obtain the calibration curve. An aqueous solution of murexide at 1 mM must also be prepared extemporaneously (10 mL) as well as a stock solution of the compounds to be tested at 4.2 mM in Hexamine buffer 0.01 M/KCl 0.01 M or in a buffer and MeOH 75/25 mixture (6.2 mL). Various concentrations of the compounds to be tested are distributed in Hexamine buffer 0.01M/KCl 0.01M (pH=5) (Table 5) or in a buffer and MeOH 75/25 mixture in tubes for hemolysis (Table 6). The solution of CuSO4.5H2O at 0.25 mM (1 mL) is then added and this is allowed to incubate at RT for 10 min. Finally, the aqueous solution of murexide at 1 mM (0.1 mL) is introduced and is again allowed to incubate at RT for 1 min. The absorbances are then measured at 485 nm ([…]) and 520 nm ([…]) by UV/Visible light spectrophotometry (V-650 JASCO spectrometer) (measurements taken in triplicates). […] After introduction of the aqueous solution of murexide at 1 mM (0.1 mL), this is allowed to incubate at RT for 1 min and the absorbances are finally measured at 485 nm ([…]) and 520 nm ([…]) by UV/Visible light spectrophotometry.

[3] = ORACFL test (Oxygen Radical Absorbance Capacity) using fluorescein/AAPH; type: physicochemical; conditions: compounds at 10 μM; mean ± SEM of three independent experiments in triplicate
Description: The antioxidant properties of the compounds according to the invention were evaluated using a ORACFL test using fluorescein (J. Agric. Food Chem., 2004 52, 48-54; J. Agric. Food Chem., 2005, 53, 4290-4302). As such, peroxide radicals, generated in the presence of AAPH (2,2′-azobis(2-methylpropionamidine)dihydrochloride) at 37° C., react with this fluorescent sensor in order to give a non-fluorescent product. The protective effect of the test compounds can then be determined by following the decay curve of the fluorescence of the fluorescein over time and be measuring the area under the curve (AUC) of the sample in relation to that of a control corresponding to an absence of antioxidant.
The trolox (6-hydroxy-2,5,7,8-tetramethylchroman-2-carboxylic acid), a water-soluble analogue of vitamin E, is used as a standard for calculating the antioxidant capacity (ORACFL) of the compounds tested at 10 μM, expressed in […] of tested compound. This value is as such obtained using the straight-line calibration equation giving the area under the curve according to the various concentrations of trolox (Bioorg. Med. Chem., 2015, 23, 1135-1148) (FIG. 11).
A solution of fluorescein (FL) (12 nM; 150 μL) is introduced into a black 96-well plate (Dutscher, Brumath, France). The compounds to be tested (1-20 μM; 25 μL) or trolox (1-50 μM; 25 μL) dissolved in D-PBS are added into each well. After equilibration of the plate during an incubation at 37° C. for a minimum of 30 min, the radical reactions are initiated using a solution of AAPH prepared extemporaneously (30 mM; 25 μL). The fluorescence (λEx: 485 nm; λEm: 520 nm) is measured every 90 seconds for 60 cycles using a temperature-controlled Tecan Infinite® 200 PRO microplate reader (measurements taken in triplicates during three independent experiments).

[4] = system: rat pheochromocytoma cells, treated as neuronal cells (PC12); assay: Cytotoxicity, cellular viability (CCK-8/WST-8) on PC12; type: cell-based; conditions: rat
Description: (§1) The cellular viability is evaluated by a colorimetric method based on the detection of the conversion of a salt of the tetrazolium (WST-8) by the metabolically active cells (CCK-8 kit, Sigma, Lyons, France) (Molecules, 2014, 19(8), 12048-12064; J. Pharmacol. Toxicol. Methods., 2007, 56(1), 58-62). Living cells have mitochondrial dehydrogenases that reduce the WST-8 (2-(2-methoxy-4-nitrophenyl)-3-(4-nitrophenyl)-5-(2,4-disulfophenyl)-2H-tetrazolium), monosodium salt) to formazan of an orange colour, which dissolves directly in the culture medium in the presence of 1-Methoxy PMS (1-methoxy-5-methylphenazinium methyl sulphate). After an incubation for 1 h at 37° C., the absorbance of the formazan is measured at 450 nm. The absorbance is directly proportional to the number of living cells.
(§2) Briefly, the cells are inoculated in 96-well plates at a rate of 5.10^3 cells per well in 100 μL of the suitable medium until subconfluence. The cells are then washed with D-PBS, then treated with various concentrations (10 μM, 100 μM) of the products to be tested in triplicates for 24 and 48 h. A positive control is carried out with 10% of DMSO. The CCK-8 (10 μL) solution is then added to each well for an incubation for 1 h at 37° C. The measurement of the absorbance is taken at 450 nm using a Perkin Elmer 2103 Envision® microplate reader.
(§3) The viability of the cells is expressed as a % of the control (untreated cells) by the mean±standard deviation of triplicates forming a representative experiment or of three independent experiments conducted in triplicate.

[5] = system: low-density lipoproteins (LDLs); assay: Antiradical properties: inhibition of lipid peroxidation in AAPH-induced oxidation of LDLs; type: biochemical
Description: The antiradical properties of the various compounds are determined by inhibition of the lipid peroxidation in the in vitro model of the oxidation of the low-density lipoproteins (LDLs) (Free Radic. Biol. Med., 1992, 13, 341-390). The lipid peroxidation is initiated by the attack by free radicals of a double bond of a polyunsaturated fatty acid present in the LDLs. […] Once initiated, the oxidation of the LDLs is a chain reaction of lipid peroxidation generated by the free radicals. The oxidation in vitro of the LDLs is induced at 37° C. by the adding of the water-soluble compound 2,2′-Azobis(2-methylpropionamidine)dihydrochloride (AAPH), which generates free radicals during the spontaneous thermal breakdown thereof
Briefly, the oxidation, carried out in a 96-well plate, is induced at 37° C. by adding 20 μL of a solution of AAPH at 2 mM in D-PBS at 160 μL of LDL (100 μg/mL) in the presence or absence of 20 μL of the various solutions of the compounds to be tested dissolved in D-PBS (0.1 to 100 μM in final concentrations). The LDLs alone without adding AAPH are used as a negative control. Each oxidation is carried out in double. During the oxidation, the formation of the conjugated dienes is followed by the measurement of the optical density at 234 nm every 10 minutes for 8 h at 37° C. using a temperature-controlled TECAN spectrophotometer. The vitamin E (α-tocopherol) which is a powerful antioxidant recognised in this in vitro model is used as a reference molecule (J. Nutr. Biochem., 2012, 23, 845-51).

[6] = system: murine endothelial brain cells (bEnd.3); assay: Cytotoxicity, cellular viability (CCK-8/WST-8) on bEnd.3; type: cell-based; conditions: mouse
Description: as §1, §2, §3

[7] = system: human fibroblasts (MRC-5); assay: Cytotoxicity, cellular viability (CCK-8/WST-8) on MRC-5; type: cell-based
Description: as §1, §2, §3

| Structure (SMILES) | disappearance of the free scavenger to the benefit of adducts with the MGO [1] | Cu^2+ chelating properties (complexation of the Cu^2+) [2] | ORACFL [3] | viability of the cells as a percentage of the untreated cells ([4]; 24 h, 10 μM) | viability of the cells as a percentage of the untreated cells ([4]; 24 h, 100 μM) | viability of the cells as a percentage of the untreated cells ([4]; 48 h, 10 μM) | viability of the cells as a percentage of the untreated cells ([4]; 48 h, 100 μM) | antioxidant / pro-oxidant behaviour ([5]; concentrations ranging from 25 to 100) | antioxidant / pro-oxidant behaviour ([5]; lower concentrations, 0.1 to 10 μM) | viability of the cells as a percentage of the untreated cells ([6]; 24 h, 10 μM) | viability of the cells as a percentage of the untreated cells ([6]; 24 h, 100 μM) | viability of the cells as a percentage of the untreated cells ([6]; 48 h, 10 μM) | viability of the cells as a percentage of the untreated cells ([6]; 48 h, 100 μM) | viability of the cells as a percentage of the untreated cells ([7]; MRC-5, 10 μM, 24 h of treatment) | viability of the cells as a percentage of the untreated cells ([7]; MRC-5, 10 μM, 48 h of treatment) | viability of the cells as a percentage of the untreated cells ([7]; MRC-5, 100 μM, 24 h of treatment) | viability of the cells as a percentage of the untreated cells ([7]; MRC-5, 100 μM, 48 h of treatment) |
| --- | --- | --- | --- | --- | --- | --- | --- | --- | --- | --- | --- | --- | --- | --- | --- | --- | --- |
| Cc1c(O)c(=O)ccn1CCCNC(=O)CCC(N)CN (stereo not shown) [Compound 37j, 4,5-diamino-N-(3-(3-hydroxy-2-methyl-4-oxopyridin-1(4H)-yl)propyl)pentanamide] | almost total disappearance of the free scavenger | most active | 1.01 ± 0.06 μmol TE/μmol |  |  |  |  |  |  |  |  |  |  |  |  |  |  |
| Cc1c(O)c(=O)ccn1CCC(=O)NCCCCC(N)CN (stereo not shown) [Compound 37i, N-(5,6-diaminohexyl)-3-(3-hydroxy-2-methyl-4-oxopyridin-1(4H)-yl)propanamide] | almost total disappearance of the free scavenger | most active | 1.24 ± 0.02 μmol TE/μmol |  |  |  |  |  |  |  |  |  |  |  |  |  |  |
| COc1cc(/C=C/C(=O)NCCCCC(N)CN)ccc1O (stereo not shown) [Compound 29b, (E)-N-(5,6-diaminohexyl)-3-(4-hydroxy-3-methoxyphenyl)acrylamide] |  | poor results | 1.50 ± 0.10 μmol TE/μmol | 108% | 112% | 95% | 97% | antioxidants | pro-oxidants | 92% | 86% | 92% | 90% | 106% | 95% | 102% | 100% |

Source: patent US10464920B2, “Vicinal primary diamines associated with metal and/or free radical chelation motifs, and active against carbonyl and oxidative stress, and use thereof” (UNIVERSITE AMIENS PICARDIE JULES VERNE, priority 2015, dated 2019)
